# Measured values: patent US20230024302A1, “2,3,5-TRISUBSTITUTED PYRAZOLO[1,5-A]PYRIMIDINE COMPOUNDS” (Arcus Biosciences, Inc., priority 2019, published 2023)
# Experiments:
# PI3Kγ (p120γ) = molecular target: T1, PI3Kγ (p120γ) (Homo sapiens, UniProt P48736); assay: Inhibition of PI3K kinase activity (ADP Glo), PI3Kγ; settings: Table 1, p120γ, read-out: biochemical potency (PI3Kγ IC50)
# T1 construct: purchased Promega V1761
# Protocol: Compounds were evaluated to determine the potency with which they inhibited the kinase activity of the Class I PI3K subunits p110α/p85α (Promega, Cat #V1721), p110β/p85α (Promega, Cat #V1751), p120γ (Promega, Cat #V1761) and p110δ/p85α (Promega, Cat #V1771). Activity was determined as a function of ADP (adenosine diphosphate) generated from ATP consumed during the phosphorylation of Phosphatidylinositol 4,5-bisphosphate (PIP2) (Promega, Cat #V1701) to yield Phosphatidylinositol (3,4,5)-trisphosphate (PIP3). ADP levels in the assay mixture at the end of the reaction were quantitated using ADP Glo (Promega, Cat #V9103) according to the manufacturer's recommended protocol.
# Enzyme was prepared for each of the PI3K subunits in 100 mM HEPES, pH 7.4, 100 mM NaCl, 6 mM MgCl2 and 0.05% BSA. p110α/p85α was prepared at 2 nM (2×), p110β/p85α was prepared at 7 nM (2×), p120γ was prepared at 8 nM (2×) and p110δ/p85α was prepared at 2 nM (2×). Five microliters of 2× enzyme dilution of each PI3K subunit were added to a 384-well white Opti-plates pre-dispensed with compound and allowed to incubate for 1 h at rt. A substrate mix containing 0.1 mg/ml (2×) of PIP2 and 50 μM (2×) ATP (Promega, Cat #V915) was prepared in 25 mM HEPES and 0.5 mM EGTA. Reactions were initiated by addition of 5 μl of 2× substrate mix to each well of the plates containing various PI3K isoforms and allowed to proceed for 60 min at rt. Ten microliters of ADP Glo reagent 1 were added to the wells of each plate and allowed to incubate at rt for 45 min according to the manufacturer's directions. Following incubation, 20 μl of ADP Glo reagent 2 was added to each plate and allowed to incubate for an additional 45 min. Luminescent signal, generated by ADP Glo, was quantified by reading on a Perkin Elmer Envision multimode reader. Compound potencies (IC50's) were determined using a standard 4-parameter fit non-linear regression fit.
# PI3Kγ = molecular target: T2, PI3Kγ (Homo sapiens, UniProt P48736); assay: PI3Kγ cellular assay in THP-1 cells (AKT pS473 AlphaLISA); type: cell-based; settings: Table 1, rhMCP-1 stimulated AKT pS473, read-out: cellular potency (PI3Kγ IC50)
# T2 construct: host or cells: THP-1
# Protocol: Twenty microliters of serum starved THP-1 cells were added to the compound plate in serum free DMEM at a density of 9×10^6 cells per ml. Final assay conditions comprised 1.8×10^5 THP-1 cells per well with test compounds in 2% DMSO across a concentration range from 4 nM to 30 μM. […] Briefly, 10 μL of 4× lysis buffer was added to cells after stimulation. Following 60 min incubation at rt, 10 μL of cell lysate was transferred to a fresh 384-well Opti-plate to which 5 μL of AlphaLisa acceptor beads and 5 μL of AlphaLisa donor beads had been added. […] PI3Kγ activity was evaluated as a correlate of endogenous AKT phosphorylation levels. Percentage maximum activity in each test well was calculated based on DMSO (100% activity) and positive control treated cell wells (0% activity). The potencies (IC50's) of test compounds were determined using a standard 4-parameter fit non-linear regression fit.
# T1 sequence (P48736 whole entry): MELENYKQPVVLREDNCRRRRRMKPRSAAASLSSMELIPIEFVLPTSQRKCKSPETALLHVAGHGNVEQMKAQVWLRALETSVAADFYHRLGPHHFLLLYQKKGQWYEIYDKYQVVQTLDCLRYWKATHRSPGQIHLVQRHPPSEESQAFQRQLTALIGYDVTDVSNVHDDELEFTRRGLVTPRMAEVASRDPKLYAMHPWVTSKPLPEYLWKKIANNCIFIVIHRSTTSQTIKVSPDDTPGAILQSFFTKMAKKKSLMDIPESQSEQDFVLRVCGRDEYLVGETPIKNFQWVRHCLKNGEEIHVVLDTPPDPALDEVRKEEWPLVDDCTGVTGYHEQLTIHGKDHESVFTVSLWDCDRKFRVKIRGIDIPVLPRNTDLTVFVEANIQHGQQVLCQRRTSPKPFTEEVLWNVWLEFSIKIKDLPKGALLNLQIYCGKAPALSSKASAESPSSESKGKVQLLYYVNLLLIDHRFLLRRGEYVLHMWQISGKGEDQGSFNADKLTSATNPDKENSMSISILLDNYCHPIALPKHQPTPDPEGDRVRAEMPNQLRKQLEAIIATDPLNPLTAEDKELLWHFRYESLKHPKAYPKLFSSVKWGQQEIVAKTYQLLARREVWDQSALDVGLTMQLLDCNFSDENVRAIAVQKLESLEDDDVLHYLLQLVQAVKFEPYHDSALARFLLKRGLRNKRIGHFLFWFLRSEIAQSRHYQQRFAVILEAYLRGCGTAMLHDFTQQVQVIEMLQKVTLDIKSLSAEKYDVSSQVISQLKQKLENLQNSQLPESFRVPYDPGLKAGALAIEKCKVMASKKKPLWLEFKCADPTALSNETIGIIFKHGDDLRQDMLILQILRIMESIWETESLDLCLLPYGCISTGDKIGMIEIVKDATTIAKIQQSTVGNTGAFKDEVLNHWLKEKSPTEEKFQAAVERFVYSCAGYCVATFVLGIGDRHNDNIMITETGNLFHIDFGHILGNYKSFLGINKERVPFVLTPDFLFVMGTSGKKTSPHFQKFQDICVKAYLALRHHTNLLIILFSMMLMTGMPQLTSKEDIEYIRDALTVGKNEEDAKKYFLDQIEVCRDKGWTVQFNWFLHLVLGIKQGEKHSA
# T2 sequence (P48736 whole entry): as above
SMILES,IC50 (PI3Kγ (p120γ)) [µM],IC50 (PI3Kγ) [µM]
"C[C@@H](C1CC1)N1Cc2cc(-c3ccn4nc(N)c(C(=O)NC5COC5)c4n3)cc(OC(F)(F)F)c2C1=O [Example 21, 2-Amino-5-{2-[(1S)-1-cyclopropylethyl]-1-oxo-7-(trifluoromethoxy)-2,3-dihydro-1H-isoindol-5-yl}-N-(oxetan-3-yl)pyrazolo[1,5-a]pyrimidine-3-carboxamide]",< 0.1,< 0.1
"C[C@@H](C1CC1)N1Cc2cc(-c3ccn4nc(N)c(C(=O)N[C@H]5C[C@@](C)(O)C5)c4n3)cc(OC(F)(F)F)c2C1=O [Example 23, 2-Amino-5-{2-[(1S)-1-cyclopropylethyl]-1-oxo-7-(trifluoromethoxy)-2,3-dihydro-1H-isoindol-5-yl}-N-[cis-3-hydroxy-3-methylcyclobutyl]pyrazolo[1,5-a]pyrimidine-3-carboxamide]",< 0.1,< 0.1
"C[C@@H](C1CC1)N1Cc2cc(-c3ccn4nc(N)c(C(=O)N[C@H]5CC[C@@](C)(O)CC5)c4n3)cc(OC(F)(F)F)c2C1=O [Example 24, 2-Amino-5-{2-[(1S)-1-cyclopropylethyl]-1-oxo-7-(trifluoromethoxy)-2,3-dihydro-1H-isoindol-5-yl}-N-[cis-4-hydroxy-4-methylcyclohexyl]pyrazolo[1,5-a]pyrimidine-3-carboxamide]",< 0.1,< 0.1
"C[C@H](CO)NC(=O)c1c(N)nn2ccc(-c3cc4c(c(OC(F)(F)F)c3)C(=O)N([C@@H](C)C(F)(F)F)C4)nc12 [Example 27, 2-Amino-N-[(2R)-1-hydroxypropan-2-yl]-5-[1-oxo-7-(trifluoromethoxy)-2-[(2S)-1,1,1-trifluoropropan-2-yl]-2,3-dihydro-1H-isoindol-5-yl]pyrazolo[1,5-a]pyrimidine-3-carboxamide]",< 0.1,< 0.1
"C[C@@H](C1CC1)N1Cc2cc(-c3ccn4nc(N)c(C(=O)N[C@H]5CNC(=O)C5)c4n3)cc(OC(F)(F)F)c2C1=O [Example 28, 2-Amino-5-{2-[(1S)-1-cyclopropylethyl]-1-oxo-7-(trifluoromethoxy)-2,3-dihydro-1H-isoindol-5-yl}-N-[(3R)-5-oxopyrrolidin-3-yl]pyrazolo[1,5-a]pyrimidine-3-carboxamide]",< 0.1,< 0.1
"C[C@@H](C1CC1)N1Cc2cc(-c3ccn4nc(N)c(C(=O)N[C@H]5CCC[C@@H](O)C5)c4n3)cc(OC(F)(F)F)c2C1=O [Example 29, 2-Amino-5-{2-[(1S)-1-cyclopropylethyl]-1-oxo-7-(trifluoromethoxy)-2,3-dihydro-1H-isoindol-5-yl}-N-[(1S,3R)-3-hydroxycyclohexyl]pyrazolo[1,5-a]pyrimidine-3-carboxamide]",< 0.1,< 0.1

# More lines, now with the values ahead:
IC50 (PI3Kγ (p120γ)) [µM],IC50 (PI3Kγ) [µM],SMILES
< 0.1,< 0.1,"C[C@H](CO)NC(=O)c1c(N)nn2ccc(-c3cc4c(c(OC(F)(F)F)c3)C(=O)N([C@@H](C)C3CC3)C4)nc12 [Example 22, 2-Amino-5-{2-[(1S)-1-cyclopropylethyl]-1-oxo-7-(trifluoromethoxy)-2,3-dihydro-1H-isoindol-5-yl}-N-[(2R)-1-hydroxypropan-2-yl]pyrazolo[1,5-a]pyrimidine-3-carboxamide]"
< 0.1,< 0.1,"CC(C)[C@H](CO)NC(=O)c1c(N)nn2ccc(-c3cc4c(c(OC(F)(F)F)c3)C(=O)N([C@@H](C)C3CC3)C4)nc12 [Example 25, 2-Amino-5-{2-[(1S)-1-cyclopropylethyl]-1-oxo-7-(trifluoromethoxy)-2,3-dihydro-1H-isoindol-5-yl}-N-[(2R)-1-hydroxy-3-methylbutan-2-yl]pyrazolo[1,5-a]pyrimidine-3-carboxamide]"
< 0.1,< 0.1,"C[C@@H](C1CC1)N1Cc2cc(-c3ccn4nc(N)c(C(=O)N[C@@H](CO)C5CC5)c4n3)cc(OC(F)(F)F)c2C1=O [Example 26, 2-Amino-N-[(1R)-1-cyclopropyl-2-hydroxyethyl]-5-{2-[(1S)-1-cyclopropylethyl]-1-oxo-7-(trifluoromethoxy)-2,3-dihydro-1H-isoindol-5-yl}pyrazolo[1,5-a]pyrimidine-3-carboxamide]"
